pKd: −log10 of the molar value.
Experiments:
[1] = target: T1, BRD4(1), first bromodomain of BRD4 (Homo sapiens, UniProt O60885); experiment: biochemical; parameters: thermal shift assay, SAR of isoxazole compounds against BRD4(1); conditions: read-out: ΔTm Shift (oC)
T1 construct: first bromodomain; BRD4_HUMAN O60884-1 fragment 44-168 (crystallography)
Method: The recombinant bromodomains at 2 μM were mixed with 10 μM inhibitors. The assays and data evaluation for melting temperatures were performed using a Real-Time PCR Mx3005p machine (Stratagene) and the protocols previously described. Experiments profiling the final compound (PNZ5) were performed in quadruplicates. Isoxazoles have been explored previously as BET bromodomain inhibitors. We have developed PNZ5, a new isoxazole-based inhibitor originating from the lead compound S1 (Figure 1). PNZ5 was developed as the result of a structure-based lead optimisation program. Dihydroindene S1 was identified as a ligand against BRD4(1) (pIC50 5.9). Investigation of the co-crystal structure of S1 with BRD4(1) [PDB ID 4GPJ] identified a number of positions for potential optimisation: addition of a carbonyl group at C-3 was envisaged to benefit from hydrogen-bonds (H-bonds) to a network of conserved water molecules; replacement of C-2 with a nitrogen would minimise interactions in the narrow ZA channel of BRD4(1) and N-substitution could provide further binding interactions with the protein; and alternative substitution of the hydroxyl at C-1 would provide a handle for further optimisation. […] The three best compounds, S3, S5 and S7, were destined to be separated into their component enantiomers for further evaluation (Supplementary Table 2). […]

[2] = target: T1, BRD4(1), first bromodomain of BRD4; experiment: ITC; co-crystal structure at […] Å; type: binding
[3] = target: T2, SP140L (Homo sapiens, UniProt Q9H930); experiment: biochemical; parameters: thermal shift assay (real-time PCR machine), melting temperature shift of recombinant bromodomains at 2 uM protein
T2 construct: bromodomain
Method: (§1) The recombinant bromodomains at 2 μM were mixed with 10 μM inhibitors. The assays and data evaluation for melting temperatures were performed using a Real-Time PCR Mx3005p machine (Stratagene) and the protocols previously described. Experiments profiling the final compound (PNZ5) were performed in quadruplicates. […] Since its discovery in our own labs, similar inhibitors have also been disclosed by researchers at Boehringer Ingelheim [reference: patent, WO 2014/154760 [31]]. The inhibitor contains two possible acetyl-lysine mimetic moieties. In order to obtain molecular insights on the interaction of the developed inhibitor, the crystal structure of the first bromodomain of BRD4 in complex with PNZ5 was solved at 1.85 Å (Figure 2C and Supplementary Table 4, 5FBX.pdb). The inhibitor, coordinating residues and water molecules were well defined by the electron density. The dimethylisoxazole moiety mimicked the acetyl lysine side chain and formed two canonical hydrogen-bond interactions with Asn140 and water mediated hydrogen-bond with Tyr 97 (Figure 2C). The common network of waters within the binding site was also conserved in the BRD4(1)-PNZ5 complex. The compound was further stabilized by lipophilic interactions with residues forming the binding site Leu92, Leu94, Ile146. The [compound left out] substituent was well accommodated next to the WPF shelf, as well as the N1-methyl substituent that formed hydrophobic interactions with Trp81. The carbonyl on the isoindolinone established a water-mediated hydrogen bond with Lys91.

[4] = target: T3, TAF1L(1) (Homo sapiens, UniProt Q8IZX4); experiment: biochemical; parameters: thermal shift assay (real-time PCR machine), melting temperature shift of recombinant bromodomains at 2 uM protein
T3 construct: bromodomain 1
Method: as §1

[5] = target: T4, BAZ1B (Homo sapiens, UniProt Q9UIG0); experiment: biochemical; parameters: thermal shift assay (real-time PCR machine), melting temperature shift of recombinant bromodomains at 2 uM protein
T4 construct: bromodomain
Method: as §1

[6] = target: T5, BRD2(1) (Homo sapiens, UniProt P25440); experiment: biochemical; parameters: thermal shift assay (real-time PCR machine), melting temperature shift of recombinant bromodomains at 2 uM protein
T5 construct: bromodomain 1
Method: as §1

[7] = target: T6, BRD3(1) (Homo sapiens, UniProt Q15059); experiment: biochemical; parameters: thermal shift assay (real-time PCR machine), melting temperature shift of recombinant bromodomains at 2 uM protein
T6 construct: bromodomain 1
Method: as §1

[8] = target: T7, TAF1(1) (Homo sapiens, UniProt P21675); experiment: biochemical; parameters: thermal shift assay (real-time PCR machine), melting temperature shift of recombinant bromodomains at 2 uM protein
T7 construct: bromodomain 1
Method: as §1

[9] = target: T8, ASH1L (Homo sapiens, UniProt Q9NR48); experiment: biochemical; parameters: thermal shift assay (real-time PCR machine), melting temperature shift of recombinant bromodomains at 2 uM protein
T8 construct: bromodomain
Method: as §1

[10] = target: T9, BAZ1A (Homo sapiens, UniProt Q9NRL2); experiment: biochemical; parameters: thermal shift assay (real-time PCR machine), melting temperature shift of recombinant bromodomains at 2 uM protein
T9 construct: bromodomain
Method: as §1

T9 sequence (Q9NRL2 whole entry): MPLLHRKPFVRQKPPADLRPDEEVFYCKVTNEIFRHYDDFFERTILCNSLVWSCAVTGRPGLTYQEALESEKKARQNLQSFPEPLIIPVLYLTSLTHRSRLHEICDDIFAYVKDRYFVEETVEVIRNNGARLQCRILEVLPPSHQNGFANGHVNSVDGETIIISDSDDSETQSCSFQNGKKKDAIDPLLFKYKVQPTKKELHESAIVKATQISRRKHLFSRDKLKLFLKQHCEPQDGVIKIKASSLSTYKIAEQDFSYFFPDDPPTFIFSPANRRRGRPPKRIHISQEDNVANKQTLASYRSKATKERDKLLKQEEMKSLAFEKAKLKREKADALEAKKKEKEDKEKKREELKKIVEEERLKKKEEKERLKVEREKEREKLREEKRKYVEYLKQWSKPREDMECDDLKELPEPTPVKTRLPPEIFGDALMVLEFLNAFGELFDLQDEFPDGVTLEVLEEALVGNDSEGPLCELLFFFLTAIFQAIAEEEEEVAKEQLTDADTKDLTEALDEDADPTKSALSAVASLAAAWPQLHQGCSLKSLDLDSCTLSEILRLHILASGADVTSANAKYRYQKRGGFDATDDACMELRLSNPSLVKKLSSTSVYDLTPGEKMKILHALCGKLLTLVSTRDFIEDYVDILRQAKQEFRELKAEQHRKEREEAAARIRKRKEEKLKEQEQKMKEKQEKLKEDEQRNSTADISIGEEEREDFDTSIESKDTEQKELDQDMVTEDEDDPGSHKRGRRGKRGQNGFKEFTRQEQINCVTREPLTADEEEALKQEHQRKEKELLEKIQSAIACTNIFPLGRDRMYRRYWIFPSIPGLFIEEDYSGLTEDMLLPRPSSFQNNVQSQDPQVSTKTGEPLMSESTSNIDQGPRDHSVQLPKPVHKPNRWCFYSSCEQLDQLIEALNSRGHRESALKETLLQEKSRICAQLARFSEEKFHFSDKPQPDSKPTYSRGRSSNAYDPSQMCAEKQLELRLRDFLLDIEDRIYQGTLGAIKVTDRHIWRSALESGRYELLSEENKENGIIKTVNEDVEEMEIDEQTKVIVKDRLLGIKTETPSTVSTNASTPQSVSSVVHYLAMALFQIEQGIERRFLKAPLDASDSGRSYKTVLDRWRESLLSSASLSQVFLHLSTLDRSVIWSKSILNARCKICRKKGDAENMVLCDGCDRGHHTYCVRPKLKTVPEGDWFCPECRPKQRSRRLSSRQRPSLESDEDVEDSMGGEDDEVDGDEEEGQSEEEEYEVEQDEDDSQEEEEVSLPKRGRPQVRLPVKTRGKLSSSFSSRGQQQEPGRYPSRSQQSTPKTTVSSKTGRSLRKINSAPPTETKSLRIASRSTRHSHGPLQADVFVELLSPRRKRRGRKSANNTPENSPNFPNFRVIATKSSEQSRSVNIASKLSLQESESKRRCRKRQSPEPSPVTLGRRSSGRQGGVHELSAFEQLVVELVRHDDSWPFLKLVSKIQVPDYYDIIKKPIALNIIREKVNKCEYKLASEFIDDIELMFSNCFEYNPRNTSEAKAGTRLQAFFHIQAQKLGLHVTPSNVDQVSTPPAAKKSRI
T4 sequence (Q9UIG0 whole entry): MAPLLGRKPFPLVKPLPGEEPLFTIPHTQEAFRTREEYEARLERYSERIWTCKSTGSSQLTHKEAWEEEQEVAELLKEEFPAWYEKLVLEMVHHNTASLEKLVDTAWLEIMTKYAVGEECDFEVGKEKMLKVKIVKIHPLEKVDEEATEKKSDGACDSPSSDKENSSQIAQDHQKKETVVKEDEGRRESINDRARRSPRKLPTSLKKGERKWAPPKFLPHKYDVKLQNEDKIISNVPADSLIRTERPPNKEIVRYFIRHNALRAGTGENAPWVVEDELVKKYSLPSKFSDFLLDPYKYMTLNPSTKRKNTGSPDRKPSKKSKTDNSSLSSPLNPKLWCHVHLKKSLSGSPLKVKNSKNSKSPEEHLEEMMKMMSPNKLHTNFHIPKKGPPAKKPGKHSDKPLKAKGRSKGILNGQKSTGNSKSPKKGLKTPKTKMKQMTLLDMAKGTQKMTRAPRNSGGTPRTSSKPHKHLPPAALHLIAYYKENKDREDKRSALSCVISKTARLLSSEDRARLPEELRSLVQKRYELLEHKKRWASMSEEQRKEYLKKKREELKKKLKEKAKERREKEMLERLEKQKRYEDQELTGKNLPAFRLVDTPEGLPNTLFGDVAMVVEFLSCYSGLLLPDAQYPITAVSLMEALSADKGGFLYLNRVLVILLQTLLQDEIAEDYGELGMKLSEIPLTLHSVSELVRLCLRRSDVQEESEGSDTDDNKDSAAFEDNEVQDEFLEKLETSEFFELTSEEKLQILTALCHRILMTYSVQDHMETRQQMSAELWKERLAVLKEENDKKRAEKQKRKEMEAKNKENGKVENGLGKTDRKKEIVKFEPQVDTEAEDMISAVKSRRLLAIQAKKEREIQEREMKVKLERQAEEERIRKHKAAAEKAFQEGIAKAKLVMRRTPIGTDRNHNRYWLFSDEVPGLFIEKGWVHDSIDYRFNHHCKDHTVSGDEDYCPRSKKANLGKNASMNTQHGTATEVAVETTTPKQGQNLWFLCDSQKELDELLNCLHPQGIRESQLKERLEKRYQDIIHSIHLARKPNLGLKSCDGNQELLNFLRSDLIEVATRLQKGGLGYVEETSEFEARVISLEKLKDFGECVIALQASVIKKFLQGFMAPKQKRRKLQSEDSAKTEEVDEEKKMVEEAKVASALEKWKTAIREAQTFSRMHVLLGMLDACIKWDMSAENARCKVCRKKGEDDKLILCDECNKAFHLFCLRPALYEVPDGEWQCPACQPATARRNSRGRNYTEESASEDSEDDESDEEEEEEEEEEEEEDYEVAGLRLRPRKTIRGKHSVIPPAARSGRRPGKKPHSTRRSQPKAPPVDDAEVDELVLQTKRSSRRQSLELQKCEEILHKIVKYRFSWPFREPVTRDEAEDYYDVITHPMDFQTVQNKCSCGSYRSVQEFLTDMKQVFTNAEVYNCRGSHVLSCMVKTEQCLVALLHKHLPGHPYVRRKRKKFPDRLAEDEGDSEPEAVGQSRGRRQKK
T2 sequence (Q9H930 whole entry): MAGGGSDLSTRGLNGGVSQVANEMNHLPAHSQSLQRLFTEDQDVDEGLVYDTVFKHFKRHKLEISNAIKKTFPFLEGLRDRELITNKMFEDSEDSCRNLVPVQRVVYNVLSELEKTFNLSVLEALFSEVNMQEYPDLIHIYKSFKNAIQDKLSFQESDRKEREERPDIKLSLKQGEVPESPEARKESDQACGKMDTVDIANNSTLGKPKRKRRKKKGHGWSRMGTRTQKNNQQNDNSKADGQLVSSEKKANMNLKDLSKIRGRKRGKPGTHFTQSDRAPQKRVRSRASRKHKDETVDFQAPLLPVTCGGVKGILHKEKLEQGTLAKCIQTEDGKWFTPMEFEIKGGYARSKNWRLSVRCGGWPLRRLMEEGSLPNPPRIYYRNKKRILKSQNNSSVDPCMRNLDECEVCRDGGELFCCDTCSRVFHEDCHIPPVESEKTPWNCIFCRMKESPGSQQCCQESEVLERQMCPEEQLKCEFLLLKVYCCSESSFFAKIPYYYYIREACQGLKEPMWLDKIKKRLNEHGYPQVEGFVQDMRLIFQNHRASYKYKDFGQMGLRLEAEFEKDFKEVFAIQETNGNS
T5 sequence (P25440 whole entry): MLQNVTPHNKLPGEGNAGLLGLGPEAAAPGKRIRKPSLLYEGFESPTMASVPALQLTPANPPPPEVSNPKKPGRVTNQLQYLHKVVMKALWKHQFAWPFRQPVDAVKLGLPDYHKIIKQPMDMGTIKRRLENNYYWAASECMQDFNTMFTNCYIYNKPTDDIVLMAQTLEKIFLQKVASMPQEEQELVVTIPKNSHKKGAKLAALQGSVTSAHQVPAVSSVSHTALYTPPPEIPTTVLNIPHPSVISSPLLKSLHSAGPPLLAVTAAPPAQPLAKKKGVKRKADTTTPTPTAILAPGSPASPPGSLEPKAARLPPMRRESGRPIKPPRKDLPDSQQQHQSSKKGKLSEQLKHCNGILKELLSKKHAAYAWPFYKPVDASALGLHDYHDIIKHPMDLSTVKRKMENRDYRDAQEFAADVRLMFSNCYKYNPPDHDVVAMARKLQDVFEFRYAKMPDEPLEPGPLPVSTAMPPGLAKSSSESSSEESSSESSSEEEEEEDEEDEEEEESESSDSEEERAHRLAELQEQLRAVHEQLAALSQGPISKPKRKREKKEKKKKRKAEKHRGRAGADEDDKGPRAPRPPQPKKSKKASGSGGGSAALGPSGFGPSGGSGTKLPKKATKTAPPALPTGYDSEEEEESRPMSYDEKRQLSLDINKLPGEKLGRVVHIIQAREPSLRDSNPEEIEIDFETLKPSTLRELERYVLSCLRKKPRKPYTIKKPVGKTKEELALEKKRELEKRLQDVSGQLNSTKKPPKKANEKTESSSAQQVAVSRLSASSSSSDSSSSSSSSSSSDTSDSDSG

ΔTm at 10 µM [1]: 11.4 °C
pKd [2]: 8.27
ΔTm at 10 µM [3]: 1.05 °C
ΔTm at 10 µM [4]: 0.31 °C
ΔTm at 10 µM [5]: 1.67 °C
ΔTm at 10 µM [6]: 7.94 °C
ΔTm at 10 µM [7]: 9.79 °C
ΔTm at 10 µM [8]: 0.09 °C
ΔTm at 10 µM [9]: 0.41 °C
ΔTm at 10 µM [10]: 1.2 °C
SMILES: Cc1noc(C)c1-c1ccc2c(c1)[C@H](c1ccccc1)N(C)C2=O [PNZ5]

From PMC5190074, “BET inhibition as a new strategy for the treatment of gastric cancer” (Oncotarget, 2016)
